Biological target: human NaV 1.8 (Homo sapiens, UniProt Q9Y5Y9)
Assay: E-VIPR assay detecting and measuring NaV inhibition properties
Type: cell-based
Conditions: HEK cells expressing truncated human NaV 1.8; no human serum; read-out: IC50 in the E-VIPR Assay
Procedure, shortened: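 HEK cells expressing truncated, fully active human NaV1.8, with KIR2.1 BacMam co-transduction, were loaded with CC2-DMPE/DiSBAC6(3) voltage-sensing dyes for 20 min at room temperature. Compounds were tested in 11-point 3-fold dilutions (300 nM top final), optionally with 25% human serum, under electrical stimulation with FRET read-out.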

Sequence of human NaV 1.8 (Q9Y5Y9 126-399 limits assumed): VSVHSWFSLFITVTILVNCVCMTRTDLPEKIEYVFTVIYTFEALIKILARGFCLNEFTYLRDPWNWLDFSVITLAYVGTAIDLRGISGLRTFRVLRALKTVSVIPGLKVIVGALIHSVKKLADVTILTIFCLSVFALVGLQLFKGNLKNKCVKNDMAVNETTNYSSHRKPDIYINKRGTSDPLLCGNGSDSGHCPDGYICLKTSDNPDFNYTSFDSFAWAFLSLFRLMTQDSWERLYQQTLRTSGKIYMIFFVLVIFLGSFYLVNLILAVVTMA
Sequence of human NaV 1.8 (Q9Y5Y9 660-890 limits assumed): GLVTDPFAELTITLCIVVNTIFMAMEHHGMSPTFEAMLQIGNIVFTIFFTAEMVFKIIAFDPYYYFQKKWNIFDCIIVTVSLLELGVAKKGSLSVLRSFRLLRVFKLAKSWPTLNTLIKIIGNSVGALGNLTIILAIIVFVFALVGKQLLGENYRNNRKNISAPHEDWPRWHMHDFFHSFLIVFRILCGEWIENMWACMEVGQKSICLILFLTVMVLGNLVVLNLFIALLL
Sequence of human NaV 1.8 (Q9Y5Y9 1148-1722 limits assumed): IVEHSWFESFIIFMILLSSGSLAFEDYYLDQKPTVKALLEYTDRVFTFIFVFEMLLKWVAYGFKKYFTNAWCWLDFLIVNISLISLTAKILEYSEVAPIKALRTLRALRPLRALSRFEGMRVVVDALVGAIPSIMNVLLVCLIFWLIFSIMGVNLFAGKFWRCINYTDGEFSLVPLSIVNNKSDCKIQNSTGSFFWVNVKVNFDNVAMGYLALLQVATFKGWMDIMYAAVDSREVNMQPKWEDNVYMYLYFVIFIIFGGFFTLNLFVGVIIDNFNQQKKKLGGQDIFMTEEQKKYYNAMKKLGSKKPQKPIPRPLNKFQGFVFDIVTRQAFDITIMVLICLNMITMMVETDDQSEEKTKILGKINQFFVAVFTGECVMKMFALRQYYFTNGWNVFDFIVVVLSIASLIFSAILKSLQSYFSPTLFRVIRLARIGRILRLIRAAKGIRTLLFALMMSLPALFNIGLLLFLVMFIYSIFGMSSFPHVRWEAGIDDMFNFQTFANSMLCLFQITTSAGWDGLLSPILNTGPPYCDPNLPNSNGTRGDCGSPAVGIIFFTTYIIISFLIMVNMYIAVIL

Row | Structure (SMILES) | IC50
1 | COc1c([C@H]2[C@H](C(=O)NC3CN(S(C)(=O)=O)C3)O[C@@](C)(C(F)(F)F)[C@H]2C)ccc(F)c1F [Compound 307, (2R,3S,4S,5R)-3-(3,4-difluoro-2-methoxyphenyl)-4,5-dimethyl-N-(1-(methylsulfonyl)azetidin-3-yl)-5-(trifluoromethyl)tetrahydrofuran-2-carboxamide] | ≥ 1 µM
2 | COc1c([C@H]2[C@H](C(=O)NC(C)c3ccc(C)c(F)c3)O[C@@](C)(C(F)(F)F)[C@H]2C)ccc(F)c1F (stereo partly drawn) [Compound 308, (2R,3S,4S,5R)-3-(3,4-difluoro-2-methoxyphenyl)-N-(1-(3-fluoro-4-methylphenyl)ethyl)-4,5-dimethyl-5-(trifluoromethyl)tetrahydrofuran-2-carboxamide] | ≥ 1 µM
3 | COc1c([C@H]2[C@H](C(=O)NC3CS(=O)(=O)C3)O[C@@](C)(C(F)(F)F)[C@H]2C)ccc(F)c1F [Compound 309, (2R,3S,4S,5R)-3-(3,4-difluoro-2-methoxyphenyl)-N-(1,1-dioxidothietan-3-yl)-4,5-dimethyl-5-(trifluoromethyl)tetrahydrofuran-2-carboxamide] | ≥ 1 µM
4 | COc1c([C@H]2[C@H](C(=O)Nc3ccnc(C4(N)COC4)n3)O[C@@](C)(C(F)(F)F)[C@H]2C)ccc(F)c1F [Compound 310, (2R,3S,4S,5R)-N-[2-(3-aminooxetan-3-yl)pyrimidin-4-yl]-3-(3,4-difluoro-2-methoxy-phenyl)-4,5-dimethyl-5-(trifluoromethyl)tetrahydrofuran-2-carboxamide] | 0.01 to 0.1 µM
5 | COc1c([C@H]2[C@H](C(=O)Nc3cn(C(F)F)nc3C)O[C@@](C)(C(F)(F)F)[C@H]2C)ccc(F)c1F [Compound 311, (2R,3S,4S,5R)-3-(3,4-difluoro-2-methoxyphenyl)-N-(1-(difluoromethyl)-3-methyl-1H-pyrazol-4-yl)-4,5-dimethyl-5-(trifluoromethyl)tetrahydrofuran-2-carboxamide] | < 0.01 µM
6 | COc1c([C@H]2[C@H](C(=O)Nc3ccnc(N4CCN(C)CC4)c3)O[C@@](C)(C(F)(F)F)[C@H]2C)ccc(F)c1F [Compound 312, (2R,3S,4S,5R)-3-(3,4-difluoro-2-methoxyphenyl)-4,5-dimethyl-N-(2-(4-methylpiperazin-1-yl)pyridin-4-yl)-5-(trifluoromethyl)-tetrahydrofuran-2-carboxamide] | 0.01 to 0.1 µM
7 | COc1c([C@H]2[C@H](C(=O)Nc3cncn3C)O[C@@](C)(C(F)(F)F)[C@H]2C)ccc(F)c1F [Compound 313, (2R,3S,4S,5R)-3-(3,4-difluoro-2-methoxyphenyl)-4,5-dimethyl-N-(1-methyl-1H-imidazol-5-yl)-5-(trifluoromethyl)-tetrahydrofuran-2-carboxamide] | 0.01 to 0.1 µM
8 | COc1c([C@H]2[C@H](C(=O)Nc3ccn4c(C)ncc4c3)O[C@@](C)(C(F)(F)F)[C@H]2C)ccc(F)c1F [Compound 315, (2R,3S,4S,5R)-3-(3,4-difluoro-2-methoxyphenyl)-4,5-dimethyl-N-(3-methylimidazo[1,5-a]pyridin-7-yl)-5-(trifluoromethyl)-tetrahydrofuran-2-carboxamide] | < 0.01 µM
9 | COc1c([C@H]2[C@H](C(=O)Nc3ccnc(-n4ccnc4C)c3)O[C@@](C)(C(F)(F)F)[C@H]2C)ccc(F)c1F [Compound 316, (2R,3S,4S,5R)-3-(3,4-difluoro-2-methoxyphenyl)-4,5-dimethyl-N-(2-(2-methyl-1H-imidazol-1-yl)pyridin-4-yl)-5-(trifluoromethyl)-tetrahydrofuran-2-carboxamide] | < 0.01 µM
10 | COc1c([C@H]2[C@H](C(=O)Nc3cnc4n3CCCC4)O[C@@](C)(C(F)(F)F)[C@H]2C)ccc(F)c1F [Compound 317, (2R,3S,4S,5R)-3-(3,4-difluoro-2-methoxyphenyl)-4,5-dimethyl-N-(5,6,7,8-tetrahydroimidazo[1,2-a]pyridin-3-yl)-5-(trifluoromethyl)-tetrahydrofuran-2-carboxamide] | 0.1 to 1 µM
11 | COc1c([C@H]2[C@H](C(=O)Nc3cn(C)cn3)O[C@@](C)(C(F)(F)F)[C@H]2C)ccc(F)c1F [Compound 318, (2R,3S,4S,5R)-3-(3,4-difluoro-2-methoxyphenyl)-4,5-dimethyl-N-(1-methyl-1H-imidazol-4-yl)-5-(trifluoromethyl)-tetrahydrofuran-2-carboxamide] | ≥ 1 µM
12 | COc1c([C@H]2[C@H](C(=O)Nc3c(C)ncn3C)O[C@@](C)(C(F)(F)F)[C@H]2C)ccc(F)c1F [Compound 319, (2R,3S,4S,5R)-3-(3,4-difluoro-2-methoxyphenyl)-N-(1,4-dimethyl-1H-imidazol-5-yl)-4,5-dimethyl-5-(trifluoromethyl)-tetrahydrofuran-2-carboxamide] | ≥ 1 µM
13 | COc1c([C@H]2[C@H](C(=O)Nc3ccnc(N(C)C)c3)O[C@@](C)(C(F)(F)F)[C@H]2C)ccc(F)c1F [Compound 320, (2R,3S,4S,5R)-3-(3,4-difluoro-2-methoxyphenyl)-N-(2-(dimethylamino)-pyridin-4-yl)-4,5-dimethyl-5-(trifluoromethyl)-tetrahydrofuran-2-carboxamide] | 0.01 to 0.1 µM
14 | COc1c([C@H]2[C@H](C(=O)Nc3cc4n(n3)CCOC4)O[C@@](C)(C(F)(F)F)[C@H]2C)ccc(F)c1F [Compound 321, (2R,3S,4S,5R)-3-(3,4-difluoro-2-methoxyphenyl)-N-(6,7-dihydro-4H-pyrazolo[5,1-c][1,4]oxazin-2-yl)-4,5-dimethyl-5-(trifluoromethyl)-tetrahydrofuran-2-carboxamide] | ≥ 1 µM
15 | COc1c([C@H]2[C@H](C(=O)Nc3ncn(C)c3C)O[C@@](C)(C(F)(F)F)[C@H]2C)ccc(F)c1F [Compound 322, (2R,3S,4S,5R)-3-(3,4-difluoro-2-methoxyphenyl)-N-(1,5-dimethyl-1H-imidazol-4-yl)-4,5-dimethyl-5-(trifluoromethyl)-tetrahydrofuran-2-carboxamide] | ≥ 1 µM

Continued, values first:

Row | IC50 | Structure (SMILES)
16 | ≥ 1 µM | COc1c([C@H]2[C@H](C(=O)N3Cc4ccncc4C3)O[C@@](C)(C(F)(F)F)[C@H]2C)ccc(F)c1F [Compound 323, ((2R,3S,4S,5R)-3-(3,4-difluoro-2-methoxyphenyl)-4,5-dimethyl-5-(trifluoromethyl)-tetrahydrofuran-2-yl)(1,3-dihydro-2H-pyrrolo[3,4-c]pyridin-2-yl)methanone]
17 | 0.01 to 0.1 µM | COc1c([C@H]2[C@H](C(=O)Nc3ccc(SC)nc3)O[C@@](C)(C(F)(F)F)[C@H]2C)ccc(F)c1F [Compound 324, (2R,3S,4S,5R)-3-(3,4-difluoro-2-methoxyphenyl)-4,5-dimethyl-N-(6-(methylthio)pyridin-3-yl)-5-(trifluoromethyl)-tetrahydrofuran-2-carboxamide]
18 | 0.01 to 0.1 µM | COc1c([C@H]2[C@H](C(=O)Nc3cn(C4CCOCC4)nc3C)O[C@@](C)(C(F)(F)F)[C@H]2C)ccc(F)c1F [Compound 325, (2R,3S,4S,5R)-3-(3,4-difluoro-2-methoxyphenyl)-4,5-dimethyl-N-(3-methyl-1-(tetrahydro-2H-pyran-4-yl)-1H-pyrazol-4-yl)-5-(trifluoromethyl)-tetrahydrofuran-2-carboxamide]
19 | < 0.01 µM | COc1c([C@H]2[C@H](C(=O)Nc3csnc3C)O[C@@](C)(C(F)(F)F)[C@H]2C)ccc(F)c1F [Compound 327, (2R,3S,4S,5R)-3-(3,4-difluoro-2-methoxyphenyl)-4,5-dimethyl-N-(3-methylisothiazol-4-yl)-5-(trifluoromethyl)-tetrahydrofuran-2-carboxamide]
20 | < 0.01 µM | COc1c([C@H]2[C@H](C(=O)Nc3ccc4cnnn4c3)O[C@@](C)(C(F)(F)F)[C@H]2C)ccc(F)c1F [Compound 329, (2R,3S,4S,5R)-N-([1,2,3]triazolo[1,5-a]pyridin-6-yl)-3-(3,4-difluoro-2-methoxyphenyl)-4,5-dimethyl-5-(trifluoromethyl)-tetrahydrofuran-2-carboxamide]
21 | < 0.01 µM | COc1c([C@H]2[C@H](C(=O)Nc3cn(C[C@H](O)CO)nc3C)O[C@@](C)(C(F)(F)F)[C@H]2C)ccc(F)c1F [Compound 332, (2R,3S,4S,5R)-3-(3,4-difluoro-2-methoxy-phenyl)-N-[1-[(2S)-2,3-dihydroxypropyl]-3-methyl-pyrazol-4-yl]-4,5-dimethyl-5-(trifluoromethyl)tetrahydrofuran-2-carboxamide]
22 | < 0.01 µM | COc1c([C@H]2[C@H](C(=O)Nc3ccnc(C[C@H](O)CO)c3)O[C@@](C)(C(F)(F)F)[C@H]2C)ccc(F)c1F [Compound 333, (2R,3S,4S,5R)-3-(3,4-difluoro-2-methoxy-phenyl)-N-[2-[(2S)-2,3-dihydroxypropyl]-4-pyridyl]-4,5-dimethyl-5-(trifluoromethyl)tetrahydrofuran-2-carboxamide]
23 | 0.01 to 0.1 µM | COc1c([C@H]2[C@H](C(=O)Nc3ccc(C[C@@H](O)CO)nc3)O[C@@](C)(C(F)(F)F)[C@H]2C)ccc(F)c1F [Compound 334, (2R,3S,4S,5R)-3-(3,4-difluoro-2-methoxy-phenyl)-N-[6-[(2R)-2,3-dihydroxypropyl]-3-pyridyl]-4,5-dimethyl-5-(trifluoromethyl)tetrahydrofuran-2-carboxamide]
24 | ≥ 1 µM | COc1c([C@H]2[C@H](C(=O)Nc3cc(C[C@@H](O)CO)n(C)n3)O[C@@](C)(C(F)(F)F)[C@H]2C)ccc(F)c1F [Compound 335, (2R,3S,4S,5R)-3-(3,4-difluoro-2-methoxy-phenyl)-N-[5-[(2R)-2,3-dihydroxypropyl]-1-methyl-pyrazol-3-yl]-4,5-dimethyl-5-(trifluoromethyl)tetrahydrofuran-2-carboxamide]
25 | < 0.01 µM | COc1c([C@H]2[C@H](C(=O)Nc3ccnc(C4(N)COC4)c3)O[C@@](C)(C(F)(F)F)[C@H]2C)ccc(F)c1F [Compound 340, (2R,3S,4S,5R)-N-(2-(3-aminooxetan-3-yl)pyridin-4-yl)-3-(3,4-difluoro-2-methoxyphenyl)-4,5-dimethyl-5-(trifluoromethyl)-tetrahydrofuran-2-carboxamide]
